According to ChEMBL document CHEMBL5729371, “Compound functioning as bromodomain protein inhibitor, and composition” (2022):

What was measured:
[1] = molecular target: T1, Bromodomain-containing protein 4 (Homo sapiens, UniProt O60885); assay: (§1) Inhibitory Activity Assay: The assays of BRD4 (D1) and BRD4 (D2) were conducted in a 384-well polystyrene plate. The test compounds were first serially diluted in DMSO and the test compound/DMSO were transferred to 384-well plates. The final concentration of DMSO in the assay was 0.1%. 2 volumes of protein/peptide mixture were added into 384-well plates, then 2 volumes of assay mixture were added, and shake for 30 s. The plate was incubated at room temperature for 2 h. Then the HTRF signal on EnVision was readed.
[2] = molecular target: T1, Bromodomain-containing protein 4; assay: as §1; remark: listed apart in the source

Row | IC50 [1] | IC50 [2] | Structure (SMILES)
1 | 1.7 nM | 6.9 nM | Cc1nc2ncc(-c3cn(C)c(=O)c4[nH]ccc34)nc2n1Cc1ccc(Cl)cc1
2 | 0.4 nM | 1 nM | CCS(=O)(=O)Nc1cc(-c2cn(C)c(=O)c3[nH]ccc23)cc2c1nc(C)n2Cc1ccc(Cl)cc1
3 | 1.4 nM | 4.2 nM | Cc1nc2ncc(-c3cn(C)c(=O)c4[nH]ccc34)cc2n1Cc1cccc(Cl)c1
